Experimental findings from patent publication US20230295197A1, “STAT5 and STAT6 Degraders and Uses Thereof” (REGENTS OF THE UNIVERSITY OF MICHICAN, priority 2022, published 2023) are described below.

Read-outs that look alike come from different tables or passages of the source.

The target of test [1] is T1, STAT6 (Homo sapiens, UniProt P42226).
T1 construct: endogenous in cells; host or cells: MOLM-16, KU-812, SKNO1, MB231, L1236
T1 sequence (P42226 1-847): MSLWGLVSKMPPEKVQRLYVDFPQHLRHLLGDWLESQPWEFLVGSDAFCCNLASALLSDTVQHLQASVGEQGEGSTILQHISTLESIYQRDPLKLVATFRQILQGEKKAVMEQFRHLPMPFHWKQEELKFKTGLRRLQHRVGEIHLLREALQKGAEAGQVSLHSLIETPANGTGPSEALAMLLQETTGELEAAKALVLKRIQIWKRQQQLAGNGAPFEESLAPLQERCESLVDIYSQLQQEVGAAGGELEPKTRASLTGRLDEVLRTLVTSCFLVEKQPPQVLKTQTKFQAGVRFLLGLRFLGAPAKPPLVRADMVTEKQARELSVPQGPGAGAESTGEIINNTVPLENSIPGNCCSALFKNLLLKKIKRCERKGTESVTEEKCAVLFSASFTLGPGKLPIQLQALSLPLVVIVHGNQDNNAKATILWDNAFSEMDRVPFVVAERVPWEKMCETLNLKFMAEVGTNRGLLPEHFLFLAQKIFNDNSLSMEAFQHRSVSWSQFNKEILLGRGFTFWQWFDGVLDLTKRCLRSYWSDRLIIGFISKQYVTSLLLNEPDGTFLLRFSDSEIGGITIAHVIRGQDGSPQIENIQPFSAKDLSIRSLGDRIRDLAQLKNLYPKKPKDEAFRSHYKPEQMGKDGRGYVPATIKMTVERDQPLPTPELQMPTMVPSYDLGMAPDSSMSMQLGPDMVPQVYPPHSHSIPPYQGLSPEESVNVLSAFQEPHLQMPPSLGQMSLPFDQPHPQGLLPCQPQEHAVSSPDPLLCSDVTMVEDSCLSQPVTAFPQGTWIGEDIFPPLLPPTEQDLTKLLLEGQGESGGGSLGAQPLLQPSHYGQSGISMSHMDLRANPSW
The test can be described thus: Immunoblotting (Western blot) analysis of STAT6 degradation efficiency of degraders in treated cells. The conditions noted are these: MOLM-16 cells, numeric bound, read-out: DC50 S6 MOLM-16. Format: cell-based. Put shortly:
(§1)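 About 1 million cells per point, grown in 10% FBS medium at 37 °C/5% CO2, were exposed to compound at the indicated concentrations and times, then lysed in RIPA buffer with protease and phosphatase inhibitors. Equal protein (20-40 μg) was resolved by SDS-PAGE, blotted to PVDF, and probed with anti-STAT5, anti-STAT6 and anti-GAPDH antibodies.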

The subject of test [2] is STAT5. The test can be described thus: Immunoblotting (Western blot) analysis of STAT5 degradation efficiency of degraders in treated cells. Format: cell-based. Put shortly: as §1
For orientation: A western blot detects proteins with antibodies after separation by electrophoresis.

[3] abbreviates: MOLM-16 cells, class symbols, read-out: DC50 S5 MOLM-16.
[4] abbreviates: MOLM-16 cells, numeric bound, read-out: DC50 S5 MOLM-16.

Usually DC50 stands for the concentration giving 50% degradation. With `CC(C)(C)[C@H](NC(=O)c1cc2cc(C(F)(F)P(=O)(O)O)ccc2s1)C(=O)N1CCC[C@H]1C(=O)N(CCC(=O)NCCCC#Cc1cccc2c1CN(C1CCC(=O)NC1=O)C2=O)c1ccc2occc2c1` (stereo partly drawn) [Compound 661, ((2-(((2S)-1-((2S)-2-(benzofuran-5-yl(3-((5-(2-(2,6-dioxopiperidin-3-yl)-1-oxoisoindolin-4-yl)pent-4-yn-1-yl)amino)-3-oxopropyl)carbamoyl)pyrrolidin-1-yl)-3,3-dimethyl-1-oxobutan-2-yl)carbamoyl)benzo[b]thiophen-5-yl)difluoromethyl)phosphonic acid], the DC50 in test [1] is greater than 300 nM; in test [2] (KU-812 cells, read-out: DC50 S5 KU-812), 100 to 1000 nM; in test [2] (setting [3]) it was less than 100 nM; in test [2] (SKNO1 cells, read-out: DC50 S5 SKNO1), 100 to 1000 nM.

As to `CN(CCCC#Cc1cccc2c1CN(C1CCC(=O)NC1=O)C2=O)C(=O)CCN(C(=O)[C@@H]1CCCN1C(=O)[C@@H](NC(=O)c1cc2cc(C(F)(F)P(=O)(O)OCOC(=O)C(C)(C)C)ccc2s1)C(C)(C)C)c1ccc2sccc2c1` (stereo partly drawn) [Compound 671, ((((2-(((2S)-1-((2S)-2-(benzo[b]thiophen-5-yl(3-((5-(2-(2,6-dioxopiperidin-3-yl)-1-oxoisoindolin-4-yl)pent-4-yn-1-yl)(methyl)amino)-3-oxopropyl)carbamoyl)pyrrolidin-1-yl)-3,3-dimethyl-1-oxobutan-2-yl)carbamoyl)benzo[b]thiophen-5-yl)difluoromethyl)(hydroxy)phosphoryl)oxy)methyl pivalate], the 50% degradation concentration (DC50) was greater than 300 nM in test [1] and less than 100 nM in test [2] (setting [3]).

In the case of `Cc1ncsc1-c1ccc([C@H](CC(=O)NCCOCCOCCOCCC(=O)N[C@@H]2C[C@@H](C(=O)Nc3ncc(-c4ccccc4)s3)N(C(=O)[C@@H](NC(=O)c3cc4cc(C(F)(F)P(=O)(O)O)ccc4s3)C(C)(C)C)C2)NC(=O)[C@@H]2C[C@@H](O)CN2C(=O)[C@@H](NC(=O)C2(F)CC2)C(C)(C)C)cc1` [Compound 582, (difluoro(2-(((S)-1-((2S,4R)-4-((S)-1-((2S,4R)-1-((S)-2-(1-fluorocyclopropane-1-carboxamido)-3,3-dimethylbutanoyl)-4-hydroxypyrrolidin-2-yl)-3-(4-(4-methylthiazol-5-yl)phenyl)-1,5-dioxo-9,12,15-trioxa-2,6-diazaoctadecan-18-amido)-2-((5-phenylthiazol-2-yl)carbamoyl)pyrrolidin-1-yl)-3,3-dimethyl-1-oxobutan-2-yl)carbamoyl)benzo[b]thiophen-5-yl)methyl)phosphonic acid], the DC50 in test [1] and in test [2] (setting [4]) was greater than 300 nM throughout.

Turning to `O=C(CCN(C(=O)CN1CCCC[C@H](NC(=O)c2cc3cc(C(F)(F)P(=O)(O)O)ccc3s2)C1=O)c1ccc(Br)cc1)NCCCC#Cc1cccc2c1CN(C1CCC(=O)NC1=O)C2=O` (stereo partly drawn) [Compound 664, ((2-(((3S)-1-(2-((4-bromophenyl)(3-((5-(2-(2,6-dioxopiperidin-3-yl)-1-oxoisoindolin-4-yl)pent-4-yn-1-yl)amino)-3-oxopropyl)amino)-2-oxoethyl)-2-oxoazepan-3-yl)carbamoyl)benzo[b]thiophen-5-yl)difluoromethyl)phosphonic acid], the DC50 in test [1] and in test [2] (setting [4]) was greater than 300 nM each time.

On to `CC(C)(C)[C@H](NC(=O)c1cc2cc(C(F)(F)P(=O)(O)O)ccc2s1)C(=O)N1C[C@H](NC(=O)CCCCCC#Cc2cccc3c2CN(C2CCC(=O)NC2=O)C3=O)C[C@H]1C(=O)Nc1ncc(-c2ccccc2)s1` (stereo partly drawn) [Compound 567, ((2-(((2S)-1-((2S,4R)-4-(8-(2-(2,6-dioxopiperidin-3-yl)-1-oxoisoindolin-4-yl)oct-7-ynamido)-2-((5-phenylthiazol-2-yl)carbamoyl)pyrrolidin-1-yl)-3,3-dimethyl-1-oxobutan-2-yl)carbamoyl)benzo[b]thiophen-5-yl)difluoromethyl)phosphonic acid], for which the DC50 in test [1] and in test [2] (setting [4]) was greater than 300 nM in each case.
